Data reported in the supplement of paper PMC13380429.

Experiments:
Conditions in all cases: 72 h
[1] = test system: U2OS; assay: relative viability EC50 (midpoint between 100% and the lowest measured viability); higher = less toxic
[2] = test system: Calu-3; assay: as above
[3] = test system: HepG2; assay: as above
[4] = test system: Caco-2; assay: as above
[5] = test system: Vero E6; assay: as above
[6] = test system: U2OS; assay: drug sensitivity score (DSS) for viability; higher = more toxic; extreme values may be limits of the assay
[7] = test system: Calu-3; assay: as above
[8] = test system: HepG2; assay: as above
[9] = test system: Caco-2; assay: as above
[10] = test system: Vero E6; assay: as above
[11] = test system: U2OS; assay: cell viability relative to DMSO; higher = less toxic
[12] = test system: Calu-3; assay: as above
[13] = test system: HepG2; assay: as above
[14] = test system: Caco-2; assay: as above
[15] = test system: Vero E6; assay: as above

Row | SMILES | relative viability EC50 [1] | relative viability EC50 [2] | relative viability EC50 [3] | relative viability EC50 [4] | relative viability EC50 [5] | drug sensitivity score [6] | drug sensitivity score [7] | drug sensitivity score [8] | drug sensitivity score [9] | drug sensitivity score [10] | cell viability ([11]; 1 nM) | cell viability ([11]; 10 nM) | cell viability ([11]; 100 nM) | cell viability ([11]; 1000 nM) | cell viability ([11]; 10000 nM) | cell viability ([12]; 1 nM) | cell viability ([12]; 10 nM) | cell viability ([12]; 100 nM) | cell viability ([12]; 1000 nM) | cell viability ([12]; 10000 nM) | cell viability ([13]; 1 nM) | cell viability ([13]; 10 nM) | cell viability ([13]; 100 nM) | cell viability ([13]; 1000 nM) | cell viability ([13]; 10000 nM) | cell viability ([14]; 1 nM) | cell viability ([14]; 10 nM) | cell viability ([14]; 100 nM) | cell viability ([14]; 1000 nM) | cell viability ([14]; 10000 nM) | cell viability ([15]; 1 nM) | cell viability ([15]; 10 nM) | cell viability ([15]; 100 nM) | cell viability ([15]; 1000 nM) | cell viability ([15]; 10000 nM)
1 | Cc1ncc(CO)c(CO)c1O [pyridoxine] | > 10 µM | > 10 µM | > 10 µM | > 10 µM | > 10 µM | 0 | 0 | 0 | 0 | 0 | 96.7% | 94.2% | 98.1% | 94.6% | 96.8% | 92.2% | 97.2% | 97.1% | 98.5% | 98.6% | 98.5% | 105% | 91% | 96.2% | 107% | 96.4% | 80.3% | 94.3% | 105% | 88% | 102% | 105% | 97.8% | 108% | 106%
2 | COCCCOc1ccnc(C[S+]([O-])c2nc3ccccc3[nH]2)c1C (stereo not given) [rabeprazole] | > 10 µM | > 10 µM | > 10 µM | > 10 µM | > 10 µM | 0 | 0 | 0 | 0 | 0 | 102% | 97.4% | 100% | 99.9% | 100% | 98% | 92.7% | 98.6% | 103% | 100% | 97.6% | 106% | 91.9% | 94.6% | 95.8% | 99.4% | 102% | 97.3% | 94.8% | 95.6% | 98% | 108% | 94.3% | 105% | 100%
3 | O=C(NC(Cc1cc(=O)[nH]c2ccccc12)C(=O)O)c1ccc(Cl)cc1 (stereo not given) [rebamipide] | > 10 µM | > 10 µM | > 10 µM | > 10 µM | > 10 µM | 0 | 0 | 0 | 0 | 0 | 90.5% | 96.7% | 93.9% | 103% | 110% | 99.2% | 97.5% | 92.7% | 99.7% | 106% | 107% | 89.4% | 108% | 105% | 104% | 92.6% | 97.7% | 89.9% | 100% | 99.3% | 101% | 96% | 97.6% | 96.8% | 110%
4 | Oc1ccc(/C=C/c2cc(O)cc(O)c2)cc1 [resveratrol] | > 10 µM | > 10 µM | > 10 µM | > 10 µM | > 10 µM | 0 | 0.1 | 0 | 0 | 0 | 97.7% | 95% | 96.9% | 106% | 106% | 106% | 103% | 94.8% | 93.7% | 87.2% | 107% | 116% | 108% | 97.9% | 104% | 93.3% | 91.6% | 95.8% | 99.3% | 90.1% | 97.5% | 97.3% | 94.9% | 100% | 98.6%
5 | OC[C@@H](O)[C@@H](O)[C@@H](O)CO [ribitol] | > 10 µM | > 10 µM | > 10 µM | > 10 µM | > 10 µM | 0 | 0 | 0 | 0 | 0 | 98.9% | 96.2% | 97.4% | 93% | 102% | 102% | 93% | 98.1% | 96.6% | 98% | 101% | 90.9% | 111% | 100% | 105% | 100% | 97% | 104% | 102% | 103% | 93.7% | 100% | 97.8% | 99.2% | 101%
6 | CO[C@H]1/C=C/O[C@@]2(C)Oc3c(C)c(O)c4c(O)c(c(/C=N/N5CCN(C6CCCC6)CC5)c(O)c4c3C2=O)NC(=O)/C(C)=C\C=C\[C@H](C)[C@H](O)[C@@H](C)[C@@H](O)[C@@H](C)[C@H](OC(C)=O)[C@@H]1C [rifapentine] | > 10 µM | > 10 µM | > 10 µM | > 10 µM | > 10 µM | 0.2 | 0 | 0 | 0.7 | 0 | 96.3% | 103% | 95.3% | 100% | 85.7% | 101% | 104% | 94.4% | 111% | 88.2% | 96.4% | 92.9% | 94% | 97.7% | 89.3% | 95.2% | 94.9% | 94.4% | 102% | 77.6% | 96.2% | 93.7% | 97% | 89.1% | 97.7%
7 | N[C@@H]1c2cccnc2[C@H](OC(=O)N2CCC(n3c(=O)[nH]c4ncccc43)CC2)CC[C@H]1c1cccc(F)c1F [rimegepant] | > 10 µM | > 10 µM | > 10 µM | > 10 µM | > 10 µM | 0 | 0 | 0 | 0 | 0 | 102% | 96.1% | 101% | 97.2% | 100% | 90.7% | 95.3% | 98.4% | 92.9% | 97.6% | 92.4% | 98.6% | 98.8% | 106% | 104% | 99.3% | 94.5% | 98.1% | 91.2% | 102% | 97% | 96.8% | 91.6% | 99.7% | 112%
8 | C[C@H]1CNCCCN1S(=O)(=O)c1cccc2cncc(F)c12 [ripasudil] | > 10 µM | > 10 µM | > 10 µM | > 10 µM | > 10 µM | 0 | 0 | 0.3 | 0 | 0.2 | 98.4% | 100% | 99.4% | 99.8% | 92.9% | 88.6% | 98.1% | 102% | 138% | 143% | 111% | 101% | 101% | 92.1% | 88% | 92% | 90.4% | 87.5% | 99.2% | 101% | 109% | 103% | 105% | 91.6% | 88.7%
9 | O=P(O)(O)C(O)(Cc1cccnc1)P(=O)(O)O [risedronate] | > 10 µM | > 10 µM | > 10 µM | > 10 µM | > 10 µM | 0 | 0 | 0 | 0 | 0 | 102% | 96.1% | 98% | 96.2% | 96% | 97.9% | 98.7% | 103% | 99.2% | 104% | 83.2% | 97.1% | 95.5% | 93.2% | 101% | 95.6% | 103% | 94.1% | 97.8% | 94.7% | 93.1% | 98.7% | 93% | 94.8% | 104%
10 | CCCN1CCCC[C@H]1C(=O)Nc1c(C)cccc1C [ropivacaine] | > 10 µM | > 10 µM | > 10 µM | > 10 µM | > 10 µM | 0 | 0 | 0 | 0 | 0 | 96.6% | 97.9% | 92.2% | 99% | 97.4% | 107% | 106% | 90.7% | 103% | 97.5% | 96.5% | 96.7% | 89.2% | 95.6% | 99.4% | 90.8% | 101% | 92.6% | 102% | 95.3% | 103% | 103% | 98.3% | 98.7% | 98.1%
11 | O=C(/C=C/c1ccc(O)c(O)c1)O[C@H](Cc1ccc(O)c(O)c1)C(=O)O [rosmarinic-acid] | > 10 µM | > 10 µM | > 10 µM | > 10 µM | > 10 µM | 0 | 0.4 | 0 | 0 | 0 | 101% | 103% | 94.8% | 104% | 98.6% | 105% | 109% | 101% | 88.5% | 94.5% | 98.8% | 111% | 106% | 96.7% | 102% | 91.5% | 102% | 87.7% | 99.1% | 88% | 102% | 103% | 99.1% | 96.4% | 99.6%
